Source: patent US20080096870A1, “Methods and Materials for Treating Mental Illness” (priority 2004, published 2008)

Key:
[1] = system: AMPA/kainate receptor; test: AMPA/kainate receptor-mediated mEPSCs, patch-clamp recording in cerebrocortical cultured neurons; format: cell-based, rat; conditions: TTX-containing solution, −60 mV, MK-801 10 μM; concentration-dependent
Description: (§1) Neuronal Cultures. Cerebral cortices were dissected from newborn rats and treated with 0.25% trypsin to dissociate the cells. Dissociated cells were resuspended in Dulbecco's Modified Eagle's Medium (DMEM) containing 10% plasma derived horse serum (PDHS) and were plated in poly-L-lysine-coated, 35 mm Nunc plastic tissue culture dishes (3.0×10^6 cells/dish/2ml media). Cultures were maintained in an atmosphere of 5% CO2/95% air.
Electrophysiological recordings: Voltage- and current-clamp recordings of membrane ionic currents and potentials were conducted by using Axopatch 200B and Axoclamp 1B amplifiers (Axon Instruments, Foster City, Calif.). […]
(§2) The miniature EPSCs were recorded in TTX-containing (0.3-1 μM), Mg^2+-free (in case of NMDA receptor recording) extracellular solution at Vh=−60 mV. […]
The digitized data was analyzed off-line using the Mini-Analysis Program (Synaptosoft, Leonia, N.J.) or the pCLAMP9 (Axon Instruments) (Axon Instruments, Union City, Calif.). […]
FIG. 3. […] A: Representative traces of AMPA-kainate mEPSCs recorded from a cortical neuron under the following conditions: control; in the presence of 3,5-DBr-L-Phe (100 μM); after washout of 3,5-DBr-L-Phe. AMPA/kainate receptor-mediated currents were recorded in TTX-containing (0.3 μM) extracellular solution at holding membrane potential of −60 mV. […] Data is expressed as mean±SEM of 6-7 cells. […]

[2] = system: rat cerebrocortical cultured neurons; test: Elicited action potentials, current-clamp in cerebrocortical cultured neurons; format: cell-based; conditions: 100 μM; inward current pulses 2 ms, 2 nA; 5 of 5 neurons
Description: as §1
Electrophysiological recordings: Voltage- and current-clamp recordings of membrane ionic currents and potentials were conducted by using Axopatch 200B and Axoclamp 1B amplifiers (Axon Instruments, Foster City, Calif.). The perforated nystatin- and gramicidin-based patch-clamp recording techniques were used to reduce nonspecific rundown of intracellular processes. Neurons were used for electrophysiological recordings between 12 and 27 days in vitro. […] Patch microelectrodes were pulled from 1.5 mm borosilicate glass tubing using a two-stage vertical pipette puller (Narishige, East Meadow, N.Y.). […]
C: Examples of action potentials elicited by depolarizing the membrane with inward current pulses of 2 ms duration and 2 nA amplitude in control (before application of 3,5-DBr-L-Phe), in the presence of 3,5-DBr-L-Phe (100 μM) and after wash-out of the drug. Similar responses were recorded from 5 of 5 neurons.

[3] = system: glutamate release; test: Evoked paired EPSCs (2nd/1st amplitude ratio) in cerebrocortical cultured neuron; format: cell-based, rat; conditions: 100 μM, Mg2+ 1 mM, Vh −60 mV
Description: as §1
(§3) Electrophysiological recordings: Voltage- and current-clamp recordings of membrane ionic currents and potentials were conducted by using Axopatch 200B and Axoclamp 1B amplifiers (Axon Instruments, Foster City, Calif.). The perforated nystatin- and gramicidin-based patch-clamp recording techniques were used to reduce nonspecific rundown of intracellular processes. Neurons were used for electrophysiological recordings between 12 and 27 days in vitro. […] Patch microelectrodes were pulled from 1.5 mm borosilicate glass tubing using a two-stage vertical pipette puller (Narishige, East Meadow, N.Y.). […] For rapid application of agonist-containing solutions to neurons, the SF-77B system (Warner Instrument Corp., Hamden, Conn.) was used.
FIG. 4. […] A: Effect of 3,5-DBr-L-Phe on the evoked EPSCs in rat cerebrocortical cultured neuron. Examples of average EPSCs (20 traces average) in control conditions (open circle), in 3,5-DBr-L-Phe (filled circle). Synaptic responses were evoked by applying two sub-threshold electric stimuli (0.4-1 ms, 50-90 V, 250 ms apart) to an extracellular electrode (a patch electrode filled with the extracellular solution) positioned in the vicinity of the presynaptic neuron. Sweeps were recorded at 10 s intervals. After 20 sweeps, 100 μM 3,5-DBr-L-Phe was added. Neuron was held in whole-cell mode at Vh=−60 mV in Mg^2+ (1 mM) containing extracellular solution. […] The amplitude of the 1st and 2nd EPSCs were measured against the baseline; each point represents an average of five subsequent sweeps. Data expressed as mean±S.E.M. for 7 cells. *, P<0.01 compared to control.

[4] = system: AMPA-kainate receptors; test: AMPA-activated currents (IAMPA) in cerebrocortical cultured neurons; format: cell-based, rat; conditions: for effect on activity of postsynaptic AMPA-kainate receptors (AMPA/kainate receptor function): rat cerebrocortical cultured neurons
Description: as §1, §3
The miniature EPSCs were recorded in TTX-containing (0.3-1 μM), Mg^2+-free (in case of NMDA receptor recording) extracellular solution at Vh=−60 mV. In order to isolate the NMDA component of GluR-mediated EPSCs, the non-NMDAR (AMPA/kainate) antagonist NBQX (10-20 μM) was added to extracellular solutions. To isolate the non-NMDAR-mediated EPSCs, the experiments were performed in the presence of NMDAR channel blocker, MK-801 (5-10 μM), or in the presence of the NMDAR antagonist, AP-5 (20 μM). Strychnine (1 μM) and picrotoxin (20 μM) were added to the extracellular solution to block glycine and GABA receptors, respectively. […] The basic extracellular solution contained (in mM): NaCl 140, KCl 4, CaCl2 2, MgCl2 1,4-(2-hydroxyethyl)-1-piperazineethanesulfonic acid (HEPES) 10, and glucose 11. The pH of the extracellular solution was adjusted to 7.4 using NaOH. The main solution for filling the patch electrodes contained (in mM): Cs gluconate 135, NaCl 5, KCl 10, MgCl2 1, CaCl2 1, EGTA 11, HEPES 10, Na2ATP 2, Na2GTP […]. The pH of the intracellular solution was adjusted to 7.4 using CsOH. […]
C and D: 3,5-DBr-L-Phe depresses AMPA-activated currents (IAMPA) in rat cerebrocortical cultured neurons. Examples of AMPA-activated currents recorded from the same rat cortical neuron before application of 3,5-DBr-L-Phe, during exposure to different concentrations of BrPhe (noted in figure) and after washout of 3,5-DBr-L-Phe (C). […] Data expressed as mean±S.E.M. for 3-5 cells. *, P<0.01 compared to control.

[5] = system: GABA receptor; test: GABA receptor-mediated mIPSCs in cerebrocortical cultured neurons; format: cell-based, rat; conditions: 100 μM; TTX-containing solution, −60 mV
Description: as §1
Electrophysiological recordings: Voltage- and current-clamp recordings of membrane ionic currents and potentials were conducted by using Axopatch 200B and Axoclamp 1B amplifiers (Axon Instruments, Foster City, Calif.). The perforated nystatin- and gramicidin-based patch-clamp recording techniques were used to reduce nonspecific rundown of intracellular processes. Neurons were used for electrophysiological recordings between 12 and 27 days in vitro. […]
as §2
FIG. 5. […] A: Representative GABA receptor-mediated mIPSCs recorded from the same neuron before (control), during (100 μM), and after (wash) application of 3,5-DBr-L-Phe. GABA receptor-mediated mIPSCs were recorded in TTX-containing (0.3 μM) extracellular solution at holding membrane potential of −60 mV. […] Summary data is expressed as mean±SEM of 5 cells.

[6] = system: NMDA receptor; test: NMDA receptor-mediated currents, patch-clamp recording in cultured cerebrocortical neurons; format: cell-based, rat; conditions: for effect on NMDA receptor-mediated current: rat cerebrocortical neurons, TTX-containing, Mg2+-free extracellular solution, holding potential −60 mV, concentration-dependent
[7] = system: NMDA receptor; conditions: see ref. 12 and 13; cited from earlier work

## N[C@@H](Cc1cc(Br)cc(Br)c1)C(=O)O [3,5-DBr-L-Phe, 3,5-dibromo-L-phenylalanine]
[1]
  effect on AMPA/kainate receptor-mediated mEPSCs (frequency and amplitude): depresses
[2]
  effect on elicited action potentials: does not significantly affect
[3]
  effect on glutamate release: causes depression
[3]; listed as 3,5-dibromo-L-Phe
  effect on glutamate release: significantly depresses
[4]; AMPA 3 μM, exposure started 45 s before AMPA, different concentrations
  effect on AMPA-activated currents (IAMPA): depresses
[4]
  effect on activity of postsynaptic AMPA-kainate receptors (AMPA/kainate receptor function): causes depression
[4]; listed as 3,5-dibromo-L-Phe
  effect on activity of postsynaptic AMPA-kainate receptors (AMPA/kainate receptor function): significantly depresses
[5]
  effect on GABA receptor-mediated mIPSCs (amplitude and frequency): does not significantly affect
[6]; 3,5-DBr-L-Phe 100 μM, AP-5 20 μM, 6 neurons
  sensitivity of 3,5-DBr-L-Phe-activated current to NMDA receptor specific antagonists: is blocked by NMDA receptor specific antagonists
[6]; 3,5-DBr-L-Phe 100 μM, NMDA 3-1000 μM, glycine 0.1 μM and 10 μM
  dependence of activating effect on NMDA receptor-mediated current on NMDA concentration: depends on concentration of NMDA in extracellular solution
[6]; 3,5-DBr-L-Phe 100 μM, different concentrations of glycine
  dependence of activating effect on NMDA receptor-mediated current on glycine concentration: does not depend on concentration of glycine
[6]
  effect on NMDA receptor-mediated current: activates
[6]; listed as 3,5-dibromo-L-Phe
  effect on NMDA receptor-mediated current: augment

## NC(CCCP(=O)(O)O)C(=O)O (stereo not drawn) [AP-5, reference compound]
[6]; AP-5 20 μM, 3,5-DBr-L-Phe 100 μM
  effect of antagonist on 3,5-DBr-L-Phe-activated current: depression of 3,5-DBr-L-Phe-activated current

## N[C@@H](Cc1cccc(Br)c1)C(=O)O [3-bromo-L-Phe, 3-bromo-L-phenylalanine]
[3]
  effect on glutamate release: significantly depresses
[4]
  effect on activity of postsynaptic AMPA-kainate receptors (AMPA/kainate receptor function): significantly depresses
[6]
  effect on NMDA receptor-mediated current: augment

## N[C@@H](Cc1ccccc1)C(=O)O [L-Phe, L-Phenylalanine]
[7]
  effect on NMDA receptor activity: opposite, depressant, effect
